Results from US20250122253A1, “REGULATING MICROTUBULE DYNAMICS AS A THERAPEUTIC TARGET FOR NERVE REPAIR” (City University of Hong Kong, priority 2023, published 2025).

Tests used:
gait movement = assay: Sciatic functional index (SFI) walking track analysis; type: in vivo, mice; settings: 15 days post-injury
Method: Adult male Fmn2^−/− mice (8-12 weeks old) and their age-matched WT littermates, or adult male C57BL/6 mice (for whole-body X-ray, AAV2/9-Fmn2-shRNA and metaxalone experiments) were trained and habituated one week before the sciatic nerve crush injury. After three independent training sessions (30 minutes per session with two days break), baseline values were taken, and sciatic nerve crush injury were performed one day after the baseline recordings. Function recovery was monitored for 30 days. On day 3 after the sciatic nerve crush, we first perform pinprick assay and followed by motor function assays every other day in a sequential manner (toe spreading, grip strength, and sciatic functional index) with 30 mins apart from each test. Animal behavioural tests were done blinded to the surgery and genotypes.
The walking track analysis was performed by training the mice to walk down a narrow corridor covered with white paper strip (10×60 cm) and the hindlimbs of the mice were pained with red water colour. […] The SFI values were calculated from footprints as follows: • […](experimental print length−naïve print length)/naïve print length+109.5×(experimental toe spread−naïve toe spread)/naïve toe spread+13.3×(experimental intermediary toe spread−naïve intermediary toe spread)/naïve intermediary toe spread−8.8. […]

[1] = system: SCG10-positive regenerating axons of sciatic nerve; assay: Quantification of in vivo axon regeneration by SCG10 immunostaining (regeneration index); design: species or system mice; settings: 3 days post-injury
Method: Mice were perfused transcardially with 4% PFA, and L4/5 DRGs and sciatic nerves were harvested, post-fixed, cryoprotected and frozen in OCT compound (Tissue-Tek). For regenerating axon quantification, 12-μm thick longitudinal serial sections of sciatic nerve were blocked with 0.5% BSA/0.1% Triton X-100 (Sigma-Aldrich), and incubated with anti-SCG10 (a marker for regenerating sensory axons; 1:5,000; Novus Biologicals) primary antibodies. The sections were then incubated with secondary antibody conjugated with Alexa Fluor 555 (1:300; Molecular Probes). A series of z-stack images were taken at 20× magnifications using Nikon AXR confocal microscope equipped with a motorized stage and a resonant scanner, stitched, and maximally projected using NIS-Elements software.
To quantify regenerating axons, the SCG10 fluorescence intensity was measured at different distal distances away from the crush site using a line scan macro in ImageJ (NIH). A fluorescence intensity profile of SCG10 immunoreactivity was plotted by averaging the SCG10 intensity from 100 neighbouring pixels and normalized to that measured in the crushed site with maximal SCG10 immunoreactivity. For each mouse, at least 3 non-overlapping sections (at least 36 μm apart) were used and averaged from 12-15 sections per genotype or treatment group (n=4-5 per genotype or treatment group).

pHDAC5 = assay: Western blot of pHDAC5 in sciatic nerve segments 0-6 mm distal to the crush site; type: in vivo, mice; settings: regenerating axons of sciatic nerves 3 days post-injury
Method: Ipsilateral L4/5 DRG neurons were harvested at various time points following sciatic nerve injury as indicated. Sciatic nerves were harvested 3 days after crush injury and segmented into 0-6 mm distal to the crush site. Each protein sample was pooled from 3 mice. DRG neurons and segmented sciatic nerves were mechanically dissociated with protein lysis buffer, and subjected to measurement of protein concentration using protein BCA assay (Pierce). Protein lysate (30 μg) was separated on 4-12% NuPAGE Tris-Glycine precast gel (Invitrogen). Protein was then transferred onto a PVDF membrane (Bio-Rad) and blocked with 5% non-fat milk (Bio-Rad) in TBS-T. The membrane was incubated with anti-FMN2 (1:500; ProteinTech), anti-phosphorylated HDAC5 (1:500, ThermoFisher), anti-HDAC5 (1:500, Novus Biologicals), anti-acetylated tubulin (1:10,000; Sigma-Aldrich), anti-NeuN (1:500; Millipore), anti-SOX10 (1:500; Abcam), anti-IBA-1 (1:1,000; Wako), anti-GFP (1:1,000; Cell Signaling), and anti-GAPDH antibodies (1:2,000; ProteinTech) as loading controls. The membrane was incubated with secondary antibody conjugated with horseradish peroxidase (1:2,000; Thermo-Fisher). Signals were detected using West Femto Maximum Sensitivity Substrate Kit (Thermo Scientific). […] Band intensities were measured using Image Lab software (Bio-Rad). […]

Cc1cc(C)cc(OCC2CNC(=O)O2)c1 (stereo not drawn) [metaxalone]
increase of average SFI compared with SFI values at day 3 post-injury (gait movement; treated immediately): 73.0%
increase of average SFI compared with SFI values at day 3 post-injury, delayed treatment (gait movement; treatment delayed by 24 hours): 71.4%
regeneration index at the region over 4.5 mm, delayed treatment ([1]; treatment delayed by 24 hours): 0.40
regeneration index at the region over 4.5 mm ([1]; treatment immediately after injury): 0.34
number of SCG10-positive regenerating axons at 4.5 mm distal to the crush injury site ([1]; vs vehicle controls): significant increase
protein expression of pHDAC5 (pHDAC5): substantial increase
